The values that follow come from patent publication US11008317B2, “Triazolopyridine inhibitors of myeloperoxidase and/or EPX” (priority 2016, dated 2021).

Molecules are shown by their SMILES. Where a name gives a salt, the structure may show the parent alone.

In experiment [1] the target is T1, myeloperoxidase (Homo sapiens, UniProt P05164).
T1 sequence (P05164 49-745): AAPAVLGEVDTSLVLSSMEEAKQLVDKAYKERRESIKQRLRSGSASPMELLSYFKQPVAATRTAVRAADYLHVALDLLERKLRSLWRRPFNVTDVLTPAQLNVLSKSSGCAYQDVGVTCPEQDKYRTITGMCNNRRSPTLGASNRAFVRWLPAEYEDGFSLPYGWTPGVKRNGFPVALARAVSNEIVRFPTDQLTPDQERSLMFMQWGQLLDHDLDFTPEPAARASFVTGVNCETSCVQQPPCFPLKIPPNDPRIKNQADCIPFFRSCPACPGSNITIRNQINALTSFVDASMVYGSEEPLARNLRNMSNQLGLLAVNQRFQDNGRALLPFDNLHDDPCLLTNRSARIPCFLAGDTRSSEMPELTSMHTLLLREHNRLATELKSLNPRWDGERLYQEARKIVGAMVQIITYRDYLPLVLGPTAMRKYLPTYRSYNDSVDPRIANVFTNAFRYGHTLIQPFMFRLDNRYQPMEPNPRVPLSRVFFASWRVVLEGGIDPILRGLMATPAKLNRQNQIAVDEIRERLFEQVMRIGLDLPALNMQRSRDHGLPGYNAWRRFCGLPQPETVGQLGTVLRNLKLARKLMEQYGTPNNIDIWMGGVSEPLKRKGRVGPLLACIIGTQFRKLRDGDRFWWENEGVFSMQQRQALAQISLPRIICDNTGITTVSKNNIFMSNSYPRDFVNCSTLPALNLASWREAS
Briefly: MPO Chlorination Assay (APF Assay). Format: biochemical. The following applies: potency range class, read-out: APF Assay IC50 value.

The target in experiment [2] is T1, myeloperoxidase. The experiment is described as follows: MPO Peroxidation Assay (Amplex Red Assay). It counts as biochemical. Conditions: potency range class, read-out: Amplex Red Assay IC50 value.

With `CC1(NCCC(c2ccccc2)c2cc(N)nc3[nH]nnc23)CCC(c2ccccc2)CC1` (mixture of isomers) [Example 143, 7-{3-[(1-methyl-4-phenylcyclohexyl)amino]-1-phenylpropyl}-3H-[1,2,3]triazolo[4,5-b]pyridin-5-amine], the IC50 on myeloperoxidase [1] and at myeloperoxidase [2] was 101 to 999 nM each time.
In the case of `CC(c1cccc(F)c1)c1cc(N)nc2[nH]nnc12` (racemic) [Example 30, 7-(1-(3-fluorophenyl)ethyl)-3H-[1,2,3]triazolo[4,5-b]pyridin-5-amine], the values for the IC50 at myeloperoxidase [1] and on myeloperoxidase [2] were 101 to 999 nM and 1 to 100 nM, respectively.
Regarding `Nc1cc(C(Cc2ccccc2F)c2ccccc2)c2nn[nH]c2n1` (single isomer, unassigned) [Example 9, 7-(2-(2-fluorophenyl)-1-phenylethyl)-3H-[1,2,3]triazolo[4,5-b]pyridin-5-amine], the concentration for half-maximal inhibition (IC50) at myeloperoxidase [1] and at myeloperoxidase [2] was 101 to 999 nM throughout.
For `Nc1cc(C(Cc2ccccc2)c2ccccc2F)c2nn[nH]c2n1` (single isomer, unassigned) [Example 10, 7-(1-(2-fluorophenyl)-2-phenylethyl)-3H-[1,2,3]triazolo[4,5-b]pyridin-5-amine], the IC50 on myeloperoxidase [1] and on myeloperoxidase [2] was 1 to 100 nM throughout.
Regarding `CC(NCCC(c1ccccc1)c1cc(N)nc2[nH]nnc12)c1ccccc1` (single isomer, unassigned) [Example 12, 7-(1-phenyl-3-((1-phenylethyl)amino)propyl)-3H-[1,2,3]triazolo[4,5-b]pyridin-5-amine], the IC50 on myeloperoxidase [1] and at myeloperoxidase [2] was 101 to 999 nM each time.
Take `Nc1cc(C(CCNC2CC(c3ccccc3)C2)c2ccccc2)c2nn[nH]c2n1` (single isomer, unassigned) [Example 80, 7-{1-phenyl-3-[(3-phenylcyclobutyl)amino]propyl}-3H-[1,2,3]triazolo[4,5-b] pyridin-5-amine]: the IC50 on myeloperoxidase [1] was in the range of 1 to 100 nM; at myeloperoxidase [2] it was 101 to 999 nM.
Turning to `Nc1cc(C(CCNC2CC(c3ccccc3)C2)c2ccccc2)c2nn[nH]c2n1` (single isomer, unassigned) [Example 81, 7-{1-phenyl-3-[(3-phenylcyclobutyl)amino]propyl}-3H-[1,2,3]triazolo[4,5-b] pyridin-5-amine], the IC50 on myeloperoxidase [1] lay in the range of 1 to 100 nM; on myeloperoxidase [2], 1000 to 10000 nM.
In the case of `Nc1cc(C(CCOC2CCc3ccccc32)c2ccccc2)c2nn[nH]c2n1` (single isomer, unassigned) [Example 231, 7-(3-((2,3-dihydro-1H-inden-1-yl)oxy)-1-phenylpropyl)-3H-[1,2,3]triazolo[4,5-b]pyridin-5-amine], the IC50 at myeloperoxidase [1] and at myeloperoxidase [2] was 101 to 999 nM in each case.
In the case of `CN(CC[C@H](c1ccccc1)c1cc(N)nc2[nH]nnc12)[C@H]1CC[C@H](c2ccccc2)CC1` (stereo in doubt) [Example 178, 7-(3-(methyl(4-phenylcyclohexyl)amino)-1-phenylpropyl)-3H-[1,2,3]triazolo[4,5-b]pyridin-5-amine], the values for the IC50 at myeloperoxidase [1] and on myeloperoxidase [2] were 1 to 100 nM and 101 to 999 nM, respectively.
With `CC(C)(NCCC(c1ccccc1)c1cc(N)nc2[nH]nnc12)c1ccccc1` (stereo not drawn) [Example 14, 7-{1-phenyl-3-[(2-phenylpropan-2-yl)amino]propyl}-3H-[1,2,3]triazolo[4,5-b]pyridin-5-amine], the half-inhibitory concentration (IC50) at myeloperoxidase [1] and on myeloperoxidase [2] was 101 to 999 nM throughout.
On to `Nc1cc(C(CCNS(=O)(=O)c2ccccc2)c2ccccc2)c2nn[nH]c2n1` (stereo not drawn) [Example 15, N-(3-(5-amino-3H-[1,2,3]triazolo[4,5-b]pyridin-7-yl)-3-phenylpropyl)benzenesulfonamide, TFA], for which the IC50 at myeloperoxidase [1] fell in the range of 101 to 999 nM; at myeloperoxidase [2], 1 to 100 nM.
The like results for `Nc1cc(C(CCNCc2ccc3ccccc3c2)c2ccccc2)c2nn[nH]c2n1` (stereo not drawn) [Example 16, 7-(3-{[(naphthalen-2-yl)methyl]amino}-1-phenylpropyl)-3H-[1,2,3]triazolo[4,5-b] pyridin-5-amine] were, in that order, 1 to 100 nM and 101 to 999 nM.
Take `Nc1cc(C(CCNCc2cccc3ccccc23)c2ccccc2)c2nn[nH]c2n1` (stereo not drawn) [Example 17, 7-(3-((naphthalen-1-ylmethyl)amino)-1-phenylpropyl)-3H-[1,2,3]triazolo[4,5-b]pyridin-5-amine]: the figures for the IC50 at myeloperoxidase [1] and at myeloperoxidase [2] were 1 to 100 nM and 101 to 999 nM, respectively.
As for `CC(C)(C)CNCCC(c1ccccc1)c1cc(N)nc2[nH]nnc12` (stereo not drawn) [Example 20, 7-{3-[(2,2-dimethylpropyl)amino]-1-phenylpropyl}-3H-[1,2,3]triazolo[4,5-b]pyridin-5-amine], the results for the IC50 on myeloperoxidase [1] and at myeloperoxidase [2] were 1000 to 10000 nM and 101 to 999 nM, respectively.
As for `Nc1cc(C(CCNC23CC4CC(CC(C4)C2)C3)c2ccccc2)c2nn[nH]c2n1` (stereo not drawn) [Example 21, 7-{3-[(adamantan-1-yl)amino]-1-phenylpropyl}-3H-[1,2,3]triazolo[4,5-b]pyridin-5-amine], the IC50 on myeloperoxidase [1] and at myeloperoxidase [2] was 101 to 999 nM in each case.
Consider `Nc1cc(C(CCNCC23CC4CC(CC(C4)C2)C3)c2ccccc2)c2nn[nH]c2n1` (stereo not drawn) [Example 22, 7-(3-{[(adamantan-1-yl)methyl]amino}-1-phenylpropyl)-3H-[1,2,3]triazolo[4,5-b] pyridin-5-amine], for which the IC50 on myeloperoxidase [1] and on myeloperoxidase [2] was 101 to 999 nM each time.
With `Nc1cc(C(CCNCC2CCCCC2)c2ccccc2)c2nn[nH]c2n1` (stereo not drawn) [Example 23, 7-{3-[(cyclohexylmethyl)amino]-1-phenylpropyl}-3H-[1,2,3]triazolo[4,5-b] pyridin-5-amine], the IC50 on myeloperoxidase [1] and at myeloperoxidase [2] was 101 to 999 nM throughout.
For `Nc1cc(C(CCNC(c2ccccc2)C(F)(F)F)c2ccccc2)c2nn[nH]c2n1` (stereo not drawn) [Example 24, 7-{1-phenyl-3-[(2,2,2-trifluoro-1-phenylethyl)amino]propyl}-3H-[1,2,3]triazolo[4,5-b]pyridin-5-amine], the IC50 on myeloperoxidase [1] lay within 1000 to 10000 nM; on myeloperoxidase [2], 101 to 999 nM.
For the compound `Nc1cc(C(CCNC2CCCc3ccccc32)c2ccccc2)c2nn[nH]c2n1` (stereo not drawn) [Example 25, 7-{1-phenyl-3-[(1,2,3,4-tetrahydronaphthalen-1-yl)amino]propyl}-3H-[1,2,3] triazolo[4,5-b] pyridin-5-amine], the half-maximal inhibitory concentration (IC50) at myeloperoxidase [1] lay in the range of 1 to 100 nM; at myeloperoxidase [2], 101 to 999 nM.
As to `Cc1cccc(C)c1CNCCC(c1ccccc1)c1cc(N)nc2[nH]nnc12` (stereo not drawn) [Example 27, 7-(3-{[(2,6-dimethylphenyl)methyl]amino}-1-phenylpropyl)-3H-[1,2,3]triazolo[4,5-b] pyridin-5-amine], the IC50 at myeloperoxidase [1] and at myeloperoxidase [2] was 101 to 999 nM throughout.
`Nc1cc(C(CCNC2CCCc3ccccc32)c2ccccc2)c2nn[nH]c2n1` (stereo not drawn) [Example 28, 7-{1-phenyl-3-[(1,2,3,4-tetrahydronaphthalen-1-yl)amino]propyl}-3H-[1,2,3]triazolo [4,5-b]pyridin-5-amine]: the IC50 on myeloperoxidase [1] and on myeloperoxidase [2] was 1 to 100 nM in each case.
As for `Nc1cc(C(CCNC2CCCc3ccccc32)c2ccccc2)c2nn[nH]c2n1` (stereo not drawn) [Example 29, 7-{1-phenyl-3-[(1,2,3,4-tetrahydronaphthalen-1-yl)amino]propyl}-3H-[1,2,3]triazolo [4,5-b]pyridin-5-amine], the IC50 on myeloperoxidase [1] and on myeloperoxidase [2] was 1 to 100 nM throughout.
On to `Nc1cc(C(Cc2ccccn2)c2ccccc2)c2nn[nH]c2n1` (stereo not drawn) [Example 38, 7-(1-phenyl-2-(pyridin-2-yl)ethyl)-3H-[1,2,3]triazolo[4,5-b]pyridin-5-amine], for which the IC50 on myeloperoxidase [1] and on myeloperoxidase [2] was 101 to 999 nM in each case.
With `CC1CC(NCCC(c2ccccc2)c2cc(N)nc3[nH]nnc23)CCN1c1ccccc1` (stereo not drawn) [Example 131, N-(3-{5-amino-3H-[1,2,3]triazolo[4,5-b]pyridin-7-yl}-3-phenylpropyl)-2-methyl-1-phenylpiperidin-4-amine], at myeloperoxidase [1], the IC50 lay in the range of 1 to 100 nM.
The same measure, in the same setting: next, `COC(=O)c1cccc(C(CCN[C@H]2CC[C@H](c3ccccc3)CC2)c2cc(N)nc3[nH]nnc23)c1` (stereo partly drawn) [Example 163, methyl 3-(1-{5-amino-3H-[1,2,3]triazolo [4,5-b]pyridin-7-yl}-3-{[(trans)-4-phenylcyclohexyl]amino}propyl) benzoate]: 1 to 100 nM.
As to `Nc1cc([C@H](CCNC23CCC(c4ccccc4)(CC2)C(O)C3)c2ccccc2)c2nn[nH]c2n1` (stereo partly drawn) [Example 181, 4-{[(3R)-3-{5-amino-3H-[1,2,3]triazolo [4,5-b]pyridin-7-yl}-3-phenylpropyl]amino}-1-phenylbicyclo[2.2.2] octan-2-ol], the IC50 at myeloperoxidase [2] lay in the range of 1 to 100 nM.
Take `NC(=O)CN(CC[C@H](c1ccccc1)c1cc(N)nc2[nH]nnc12)[C@H]1CC[C@H](c2ccccc2)CC1` [Example 189, 2-{[(3R)-3-{5-amino-3H-[1,2,3]triazolo [4,5-b]pyridin-7-yl}-3-phenylpropyl] [(trans)-4-phenylcyclohexyl]amino}acetamide]: the IC50 on myeloperoxidase [1] is 1 to 100 nM.
As for `Nc1cc(C(Cc2ccc(CO)cc2)c2ccccc2)c2nn[nH]c2n1` (stereo not drawn) [Example 224, (4-(2-(5-amino-3H-[1,2,3]triazolo[4,5-b]pyridin-7-yl)-2-phenylethyl)phenyl)methanol], at myeloperoxidase [2], the IC50 lay in the range of 1 to 100 nM.
